Measured values reported in ChEMBL document CHEMBL1201862, “PubChem BioAssay data set” (2004).
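Briefly, cells in 96-well plates were exposed to five compound concentrations for 48 h, and endpoints were estimated by linear interpolation. GI50 = concentration required for 50% inhibition of growth.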 Calls of active or inactive are those of the source. Rule as the data show it: active = GI50 up to about 1.1 µM and inactive = higher.

Assays:
Assay in all cases: inhibition of tumour cell growth, NCI panel, 48 h
[1] = system: RPMI-8226
[2] = system: DU-145
[3] = system: T47D
[4] = system: A549
[5] = system: SW-620
[6] = system: HL-60
[7] = system: BT-549
[8] = system: K562
[9] = system: IGROV-1
[10] = system: HCT-15
[11] = system: A498
[12] = system: MDA-MB-231
[13] = system: NCI-H23
[14] = system: UO-31
[15] = system: SK-OV-3
[16] = system: M14
[17] = system: RXF 393
[18] = system: Malme-3M
[19] = system: MCF7
[20] = system: UACC-257
[21] = system: SK-MEL-2
[22] = system: SF-539
[23] = system: SK-MEL-5
[24] = system: NCI-H460
[25] = system: OVCAR-8
[26] = system: UACC-62
[27] = system: SN12C
[28] = system: 786-0
[29] = system: COLO 205
[30] = system: NCI/ADR-RES
[31] = system: MOLT-4
[32] = system: U-251
[33] = system: ACHN
[34] = system: OVCAR-4
[35] = system: SR
[36] = system: HT-29
[37] = system: SF-268
[38] = system: HCT-116
[39] = system: NCI-H226
[40] = system: NCI-H522
[41] = system: LOX IMVI
[42] = system: SF-295
[43] = system: MDA-MB-435
[44] = system: SK-MEL-28
[45] = system: SNB-19
[46] = system: KM12
[47] = system: TK-10
[48] = system: MDA-N
[49] = system: HOP-92
[50] = system: Hs-578T
[51] = system: EKVX
[52] = system: OVCAR-3
[53] = system: PC-3
[54] = system: CAKI-1
[55] = system: OVCAR-5
[56] = system: CCRF-CEM
[57] = system: SNB-75
[58] = system: HCC 2998
[59] = system: HOP-62

NNC(=O)c1ccc(OCc2nc3ccccc3[nH]2)cc1
GI50 [1]: 55.6 µM (inactive)
GI50 [2]: 94.2 µM (inactive)
GI50 [3]: 53.7 µM (inactive)
GI50 [4]: > 100 µM (inactive)
GI50 [5]: > 100 µM (inactive)
GI50 [6]: 43.7 µM (inactive)
GI50 [7]: 52.2 µM (inactive)
GI50 [8]: 39.5 µM (inactive)
GI50 [9]: > 100 µM (inactive)
GI50 [10]: > 100 µM
GI50 [11]: > 100 µM (inactive)
GI50 [12]: > 100 µM (inactive)
GI50 [13]: > 100 µM (inactive)
GI50 [14]: 48.5 µM (inactive)
GI50 [15]: > 100 µM (inactive)
GI50 [16]: 53.1 µM (inactive)
GI50 [17]: 34.8 µM (inactive)
GI50 [18]: > 100 µM (inactive)
GI50 [19]: 72.6 µM (inactive)
GI50 [20]: 66.4 µM (inactive)
GI50 [21]: > 100 µM (inactive)
GI50 [22]: > 100 µM (inactive)
GI50 [23]: 27.9 µM (inactive)
GI50 [24]: 31.8 µM (inactive)
GI50 [25]: > 100 µM (inactive)
GI50 [26]: > 100 µM (inactive)
GI50 [27]: > 100 µM (inactive)
GI50 [28]: > 100 µM (inactive)
GI50 [29]: 71.4 µM (inactive)
GI50 [30]: > 100 µM (inactive)
GI50 [31]: 14.8 µM (inactive)
GI50 [32]: > 100 µM (inactive)
GI50 [33]: > 100 µM (inactive)
GI50 [34]: > 100 µM (inactive)
GI50 [35]: 25.2 µM (inactive)
GI50 [36]: > 100 µM (inactive)
GI50 [37]: 89.3 µM (inactive)
GI50 [38]: 29.1 µM (inactive)
GI50 [39]: > 100 µM (inactive)
GI50 [40]: 30 µM (inactive)
GI50 [41]: > 100 µM (inactive)
GI50 [42]: > 100 µM (inactive)
GI50 [43]: > 100 µM (inactive)
GI50 [44]: > 100 µM (inactive)
GI50 [45]: > 100 µM (inactive)
GI50 [46]: > 100 µM (inactive)
GI50 [47]: > 100 µM (inactive)
GI50 [48]: > 100 µM (inactive)
GI50 [49]: > 100 µM (inactive)
GI50 [50]: 28.1 µM (inactive)
GI50 [51]: > 100 µM (inactive)
GI50 [52]: 43.5 µM (inactive)
GI50 [53]: > 100 µM (inactive)
GI50 [54]: > 100 µM (inactive)
GI50 [55]: > 100 µM (inactive)

O=S1(=O)OCCOS(=O)(=O)C1C1c2ccccc2-c2ccccc21
GI50 [1]: 28.6 µM (inactive)
GI50 [2]: 37.3 µM (inactive)
GI50 [3]: 93.8 µM (inactive)
GI50 [4]: 40.8 µM (inactive)
GI50 [5]: 26.9 µM (inactive)
GI50 [6]: 15.5 µM (inactive)
GI50 [7]: 48.8 µM (inactive)
GI50 [8]: 31.3 µM (inactive)
GI50 [9]: 23.5 µM (inactive)
GI50 [10]: 35.4 µM
GI50 [11]: > 100 µM (inactive)
GI50 [12]: > 100 µM (inactive)
GI50 [13]: 28.7 µM (inactive)
GI50 [14]: 28.7 µM (inactive)
GI50 [15]: 40.3 µM (inactive)
GI50 [16]: 38.3 µM (inactive)
GI50 [17]: 50.9 µM (inactive)
GI50 [18]: 56.2 µM (inactive)
GI50 [19]: 39 µM (inactive)
GI50 [20]: 36.4 µM (inactive)
GI50 [56]: 16.4 µM (inactive)
GI50 [21]: 70.3 µM (inactive)
GI50 [22]: 22.8 µM (inactive)
GI50 [23]: 28.7 µM (inactive)
GI50 [24]: 11.4 µM (inactive)
GI50 [25]: 50.8 µM (inactive)
GI50 [26]: 21.7 µM (inactive)
GI50 [27]: 48.6 µM (inactive)
GI50 [28]: 20 µM (inactive)
GI50 [29]: 70.5 µM (inactive)
GI50 [30]: 25.7 µM (inactive)
GI50 [57]: 2.41 µM (inactive)
GI50 [31]: 15.6 µM (inactive)
GI50 [32]: 20.7 µM (inactive)
GI50 [33]: 27.2 µM (inactive)
GI50 [58]: 29 µM (inactive)
GI50 [34]: 23 µM (inactive)
GI50 [36]: 34 µM (inactive)
GI50 [37]: 28.9 µM (inactive)
GI50 [38]: 28.6 µM (inactive)
GI50 [39]: 26 µM (inactive)
GI50 [40]: 20.7 µM (inactive)
GI50 [41]: 14.8 µM (inactive)
GI50 [42]: 29 µM (inactive)
GI50 [43]: 33.6 µM (inactive)
GI50 [44]: 67.6 µM (inactive)
GI50 [45]: 38.5 µM (inactive)
GI50 [46]: 41.5 µM (inactive)
GI50 [47]: > 100 µM (inactive)
GI50 [48]: 36.7 µM (inactive)
GI50 [49]: > 100 µM (inactive)
GI50 [50]: 44.9 µM (inactive)
GI50 [59]: 29.3 µM (inactive)
GI50 [51]: 42.8 µM (inactive)
GI50 [52]: 47 µM (inactive)
GI50 [53]: 90.4 µM (inactive)
GI50 [54]: 29.7 µM (inactive)
GI50 [55]: 72.3 µM (inactive)
